Laboratory results: patent publication US20230172919A1, “AN INSULIN SENSITIZER FOR USE IN THE PREVENTION AND/OR TREATMENT OF THE DAMAGES CAUSED BY RETINAL DETACHMENT” (SORBONNE UNIVERSITE, priority 2020, published 2023)

Tests used:
[1] = test system: PNA+CAR+ cones of C57BL/6J retinal explants; assay: Retinal explants culture, cone quantification; type: cell-based, mouse (C57BL/6J); conditions: 5-day retinal explants
Procedure: C57BL/6J retina were prepared and placed on polycarbonate filters floating on Dulbecco’s modified Eagle’s medium (DMEM, Thermo Fisher Scientific) with the photoreceptors facing down. For the experiment, retinal explants were cultured in high glucose (25 mM) DMEM alone or supplemented with human insulin (Umuline NPH), human insulin and insulin receptor inhibitor (Hydroxy-2-naphthalenylmethylphosphonic acid (HNMPA), Abcam) or vehicle (DMSO) at 37° C. […] For this reason, HNMPA was used at a concentration 10-fold higher than the IC50 (1 mM). Each culture medium was renewed every 36 hours and after 5 days, the retinal explants were carefully removed. Immunohistochemistry and cones quantification were then performed as described for retina below.
Eyes were enucleated, fixed in 4% paraformaldehyde for 1 hour at room temperature and sectioned at the limbus; the cornea and lens were discarded. […] The retinas were flat mounted and viewed with a fluorescence microscope (DM5500, Leica). […] Each cell population was manually counted in a masked fashion. IBA-1+ cells were quantified on flat mounts on the outer segment side of the detached retina while PNA+ cone arrestin+ cells were counted on confocal microscopy Z-stacks using ImageJ software.

[2] = test system: RD-induced cone loss and subretinal IBA-1+ MPs in C57BL/6J mice; assay: Mouse model of RD (retinal detachment), retinal flat mount quantification; type: in vivo, mouse (C57BL/6J); conditions: for number of PNA+CAR+ cones (cone survival) / numbers of subretinal IBA1+ MPs: day 7 after RD, subretinal injection in diluted sodium hyaluronate (insulin 2 IU/ml, IGF-1 200 ng/ml, metformin 50 mg/ml), compared to PBS controls
Procedure: Wild-type (C57BL/6J) mice were purchased from Janvier Labs at the age of 8 weeks. Mice were housed in the animal facility under specific pathogen-free condition, in a 12 h/12 h light/dark (100-500 lux) cycle with water and normal diet food available ad libitum. All experimental protocols and procedures were approved by the local animal care ethics committee (N°APAFIS#5201-20160427103344).
RD was induced with a previously described method (Nakazawa et al., 2006, 2007a, 2011). Briefly, mice were anesthetized with an intraperitoneal injection of xylazine hydrochloride (10 mg/kg) and ketamine hydrochloride (100 mg/kg) and pupils were dilated with topical phenylephrine (5%) and tropicamide (0.5%). A 30-gauge needle was first used to create two sclerotomies 1.5 mm posterior to the limbus. A glass needle (with a […] manually beveled tip) connected to a Hamilton syringe filled with diluted sodium hyaluronate (Healon GV®, Alcon) was then introduced into the vitreous cavity through one of the sclerotomy. The tip of the needle was finally inserted into the subretinal space through a peripheral retinotomy and 4 µl of diluted sodium hyaluronate containing or not recombinant human TSP-1 (100 µg/ml, Biotechne), human insulin (2 IU/ml, Umuline NPH), recombinant IGF-1 (200 ng/ml, Biotechne) or metformin (50 mg/ml), was gently injected, detaching approximately two-third of the retina from the underlying RPE.
For treatment with rosiglitazone, mice received intraperitoneal injections of 10 mg/kg rosiglitazone or vehicle (5% DMSO) 3 days before and 4 to 7 days after RD induction.
Eyes with subretinal hemorrhage were excluded from analysis. Mice were sacrificed from 1 to 10 days following RD, according to the experiment.
Eyes were enucleated, fixed in 4% paraformaldehyde for 1 hour at room temperature and sectioned at the limbus; the cornea and lens were discarded. The retinas were peeled from the RPE/choroid/sclera and incubated overnight at 4° C. in PBS-1% triton with the following primary antibodies: peanut agglutinin Alexa fluor® 594 (Thermo Fisher Scientific; 1/100), rabbit polyclonal anti-human cone arrestin antibody (LUMIF-hCAR; 1:10000) and goat polyclonal anti-IBA1 (1/100). After few washes, the retinas were incubated for 2 hours at room temperature with appropriate Alexa Fluor® conjugated secondary antibodies (Thermo Fisher Scientific; 1:500) in PBS-1% triton and nuclei were counterstained with Hoechst (1:1000, Sigma Aldrich). The retinas were flat mounted and viewed with a fluorescence microscope (DM5500, Leica). Images centered on the area with the lowest number of PNA+ cone arrestin+ cells were captured with a confocal laser-scanning microscope (FV1000, Olympus) using a 40X lens. Each cell population was manually counted in a masked fashion. IBA-1+ cells were quantified on flat mounts on the outer segment side of the detached retina while PNA+ cone arrestin+ cells were counted on confocal microscopy Z-stacks using ImageJ software.

| PNA+CAR+ cones after addition of insulin receptor inhibitor ([1]; high glucose DMEM with human insulin, HNMPA 1 mM, versus vehicle (DMSO)) | Compound | number of PNA+CAR+ cones (cone survival) [2] | numbers of subretinal IBA1+ MPs [2] | number of infiltration of subretinal IBA-1+ MPs ([2]; day 7 of RD, daily intraperitoneal 10 mg/kg from 3 days before and throughout RD, versus vehicle (DMSO 5%)) | cone survival (PNA+CAR+ cones) ([1]; high glucose (25 mM) DMEM, human insulin 5 mIU/ml, compared to the control condition) |
| --- | --- | --- | --- | --- | --- |
| severe loss | O=P(O)(O)C(O)c1ccc2ccccc2c1 (stereo not drawn) [HNMPA, Hydroxy-2-naphthalenylmethylphosphonic acid, reference compound] |  |  |  |  |
|  | CN(C)C(=N)N=C(N)N [metformin, reference compound] | increased | significantly decreased |  |  |
|  | CN(CCOc1ccc(CC2SC(=O)NC2=O)cc1)c1ccccn1 (stereo not drawn) [rosiglitazone, reference compound] |  |  | no effect |  |
|  | IGF-1: recombinant IGF-1 (Biotechne), insulin-like growth factor | no effect | no effect |  |  |
|  | insulin: human insulin (Umuline NPH) | very significantly increased | did not alter |  | significantly increased |
